In patent US10022356B2, “Compounds for treatment of cancer” (UNIVERSITY OF TENNESSEE RESEARCH FOUNDATION, priority 2013, dated 2018):

Columns and labels:
[1] = test system: metastasis of melanoma to the lungs; experiment: Melanoma lung metastasis model in mice; assay type: in vivo; details: i.p. injection 5 days per week for 2 weeks (FIG. 28)
Text: Panel A: Representative photos of lungs with melanoma nodules (black dots, n=8 per group). Treatment was i.p. injection 5 days per week for 2 weeks. Panel B: Number of melanoma nodules on each lung. […] Panel C: Mouse body weight changes during the experiment. Points: means; bars: SD. Control: vehicle solution only.

[2] = test system: A375 human melanoma xenograft; experiment: A375 human melanoma xenograft in SHO nude mice; assay type: in vivo; details: 25 mg/kg; after 31 days of treatment
Procedure: FIG. 19 depicts in vivo study of ABI compounds. […] C57BL/6 mice bearing B16-F1 melanoma allograft (n=5 per group). Each mouse received 0.5×10^6 cells by s.c. injection into the flank. 30 μL i.p. daily treatments were started when tumor size reached ˜100 mm^3. […] SHO nude mice bearing an A375 human melanoma xenograft (n=5 per group). Each mouse received 2.5×10^6 cells by s.c. injection into the flank. 30 μL i.p. daily treatments were started when the tumor size reached ˜150 mm^3. Control, vehicle solution only; points, means; bars, SD. DTIC, (5-(3,3,-dimethyl-1-triazenyl)-imidazole-4-carboxamide, dacarbazine.
Average body weight of all groups increased slightly throughout the experiment period.

B16-F1 melanoma = B16-F1 melanoma tumors in C57/BL mice; assay type: in vivo; details: after 13 days of treatment, C57BL/6 mice
Procedure: C57BL/6 mice bearing B16-F1 melanoma allograft (n=5 per group). Each mouse received 0.5×10^6 cells by s.c. injection into the flank. 30 μL i.p. daily treatments were started when tumor size reached ˜100 mm^3. […] Control, vehicle solution only; points, means; bars, SD. DTIC, (5-(3,3,-dimethyl-1-triazenyl)-imidazole-4-carboxamide, dacarbazine.
Female C57/BL mice, age 4-6 weeks, were purchased from Harlan Laboratories (Harlan Laboratories Inc., Indianapolis, Ind.). The animal housing met the Association for Assessment and Accreditation and Laboratory Animal Care specifications. All of the procedures were conducted in accordance with guidelines of our Institutional Animal Care and Use Committee.
The cell suspension (100 μL) was injected subcutaneously in the right dorsal flank of each mouse. When tumor size reached about 100-150 mm^3, about 7 days after cell inoculation, all mice bearing tumors were divided into control and treatment groups based on tumor size (n=5 per group). Each group had similar average tumor size. Mice in control groups (negative control) were injected intraperitoneally with 50 μL vehicle solution only or DTIC at 60 mg/kg (positive control) once daily. Tumor volume was measured every 2 days with a traceable electronic digital caliper (Fisher Scientific, Inc., Pittsburgh, Pa.) and calculated using the formula a×b^2×0.5, where a and b represented the larger and smaller diameters, respectively. Tumor volume was expressed in cubic millimeters. Data were expressed as mean±SE for each group and plotted as a function of time. […] Animal activity and average body weight of each group were monitored during the entire experiment period to assess compound toxicity. At the end of treatment, all mice were euthanized by CO2 followed by cervical dislocation, and tumors were harvested for further studies.

OVCAR-8 = experiment: Growth inhibition, OVCAR-8; assay type: cell-based; details: Homo sapiens, OVCAR-8, read-out: IC50 (nM), OVCAR-8
B16-F1 melanoma cells = experiment: B16-F1 melanoma colony formation assay in soft agar; assay type: cell-based, mouse; details: 14 days; tested 20, 100, 500 nM
Procedure: B16-F1 melanoma cells were plated at a colony-forming density (2000 cells per well on six-well plates) on top of 0.8% base agar. Cells were grown in 0.4% agar together with DMEM medium supplemented with fetal bovine serum and an antibiotic-antimycotic solution at 37° C. in an atmosphere of 95% air and 5% CO2. […] Compounds were added to the media from 1 mM DMSO stock solutions, and a corresponding dilution of DMSO was used as control. Cells were grown for 14 days. Plates were photographed, and the number of colonies was measured by Artek 880 Automated Colony Counter (Artek Systems Corporation, Farmingdale, N.Y.).

PC-3 = experiment: SRB cytotoxicity assay, PC-3; details: read-out: PC3 (nM), inhibitory effects; RABI, Tables 10A/10B
LNCaP = experiment: SRB cytotoxicity assay, LNCaP; assay type: cell-based, human; details: Reversed aryl benzoyl imidazole (RABI), Tables 10A/10B; read-out: LNCaP (nM), inhibitory effects
Du 145 = experiment: SRB cytotoxicity assay, Du 145; assay type: cell-based, human; details: RABI, Tables 10A/10B; read-out: DU145 (nM), inhibitory effects
MDA-MB-435/LCC6MDR1 = experiment: SRB growth inhibition, multidrug-resistant MDA-MB-435/LCC6MDR1; assay type: cell-based; details: Tables 11C, 11D; read-out: IC50 ± SEM (μm), MDA-MB-435/LCC6MDR1
PPC-1 = experiment: SRB cytotoxicity assay, PPC-1; assay type: cell-based, human; details: RABI, Tables 10A/10B; read-out: PPC1 (nM), inhibitory effects
MDA-MB-435 = experiment: SRB growth inhibition, MDA-MB-435 (sensitive parent melanoma line); assay type: cell-based, human; details: Tables 11C, 11D; read-out: IC50 ± SEM (μm), MDA-MB-435
in vivo = details: nude, mouse, 20 mg/kg
[3] = ICR, Sprague-Dawley, beagle, mouse, in vivo
Procedure: All compounds (10 mg/kg) were dissolved in DMSO/PEG300 (1/9) and administered by a single intravenously (i.v.) injection (50 μL) into the tail vein.

[4] = Metabolic stability in human liver microsomes; details: Table 13A; mean from duplicate studies
DU145/TXR = experiment: Growth inhibition, DU145/TXR; assay type: cell-based; details: RABI, Table 10A; read-out: DU145/TXR (nM), inhibitory effects
A375 = experiment: SRB cell culture cytotoxicity assay, A375; assay type: cell-based, human; details: Tables 11C, 11D; read-out: IC50 ± SEM (μm), A375
WM164 = experiment: SRB cell culture cytotoxicity assay, WM-164; assay type: cell-based, human; details: 48 h
B16-F1 = experiment: SRB cell culture cytotoxicity assay, B16-F1; assay type: cell-based, mouse; details: 48 h

In the case of `O=C(c1ccc(F)cc1)c1c[nH]c(-c2ccc(Cl)cc2)n1` [12fb, (2-(4-chlorophenyl)-1H-imidazol-4-yl)(4-fluorophenyl)methanone], the “metastasis of melanoma to the lungs” value [1] is reported as “inhibition”, the “melanoma tumor growth inhibition (TGI value)” value [2] is reported as 69% and the “melanoma tumor growth inhibition (TGI value)” value (B16-F1 melanoma; 15 mg/kg) is reported as 32%. The “melanoma tumor growth inhibition (TGI value)” value (B16-F1 melanoma; 45 mg/kg) was 82%, the IC50 (OVCAR-8) was 47 nM and the “concentration showing effective inhibition of B16-F1 colony formation” value (B16-F1 melanoma cells) was 100 nM.
For `COc1cc(-c2c[nH]c(C(=O)c3ccccc3)n2)cc(OC)c1OC` [70x], the IC50 (PC-3) was 632 nM, the IC50 (LNCaP) was 195 nM and the IC50 (Du 145) was 1300 nM. For the same molecule, the IC50 (MDA-MB-435/LCC6MDR1) was 5770 nM, the IC50 (PPC-1) was 408 nM and the IC50 (MDA-MB-435) was 4600 nM.
For `COc1cc(C(=O)c2csc(Nc3ccc4[nH]ccc4c3)n2)cc(OC)c1OC` [compound 55], the Kp (in vivo) was 3.2, the “oral bioavailability rates among three species” value [3] was 24-36% and the “half-life in human liver microsomes” value [4] was 28 min.
Molecule `COc1cc(C(=O)c2nc(-c3ccc(Cl)cc3)c[nH]2)cc(OC)c1OC` [70c] has an IC50 (DU145/TXR) of 121 nM.
With `COc1cc(Cc2nc(-c3ccccc3)c[nH]2)cc(OC)c1OC` [102a] the IC50 (A375) was 10200 ± 392 nM.
`COc1cc(C(=O)c2c[nH]c(-c3ccc(O)cc3)n2)cc(O)c1OC` [12kc] gave an IC50 (WM164) of 6400 nM and an IC50 (B16-F1) of 5600 nM.
